From US20220268782A1, “METHODS FOR PREDICTING AND TREATING CARDIAC DYSFUNCTION” (INSERM (INSTITUT NATIONAL DE LA SANTÉ EAT DE LA RECHERCHE …, priority 2019, published 2022)

How the values were obtained:
C2C12 myoblasts = test: Oxidative stress in C2C12 cells (CellROX cytosolic superoxide, MitoSOX mitochondrial superoxide, GSH); type: cell-based
Method: C2C12 (ATCC® CRL-1772™) myoblasts maintained in DMEM supplemented with L-glutamine (2 mM), penicillin/streptomycin (1%) and 5% fetal bovine serum (FBS) were seeded either at a density of 5×10^4 cells (<50%) per well in 24-well plates or 10^4 cells in 4-well chamber slides. Cells were with L-phenylalanine (1-10 mM)+BH4 (10 μM) and incubation with increasing concentrations of N-acetylcysteine (0.5, 2.5, 5 mM) vs. vehicle overnight as indicated. Cells were analysed for oxidative stress with MitoSOX™ (mitochondrial superoxide; 5 μM, ThermoFisher Scientific), CellROX™ (cytosolic superoxide; 5 μM, ThermoFisher Scientific), gene or protein expression, or various metabolites (see below).
(§1) Levels of reduced glutathione (GSH; ThermoFisher), phenylalanine (BioVision) and tyrosine (BioVision) were determined from cells or plasma, with respective agents/kits following the manufacturer's recommendations. Specifically, GSH levels were estimated with the aid of ThiolTracker™ Violet fluorescent probe (ThermoFisher). Plasma and liver phenylalanine levels were determined using an enzyme-coupled, fluorometric method (BioVision). Briefly, samples were deproteinized via trichloroacetate precipitation, neutralised, tyrosinase-treated (to remove tyrosine that may interfere) and diluted to fit in the standard curve. Fluorescence reading took place at 587 nm after excitation at 535 nm. Levels of tyrosine in cells or conditioned media were determined after deproteinization using 10 kDa cut-off columns with an enzyme-coupled, colorimetric method with reading at 491 nm (BioVision).

AML-12 hepatocytes = test: AML-12 hepatocytes: p21, Pah immunoblot and tyrosine production; type: cell-based
Method: Cells were washed briefly with ice-cold 1×PBS, scraped in 400 μL T-PER lysis buffer (ThermoFisher) supplemented with 0.1 mM phenylmethylsulphonyl fluoride (PMSF) and protease/phosphatase inhibitor cocktail tablet (ThermoFisher). Pulverised tissue samples (20-30 mg) were lysed in the same buffer accelerated by sonication and passing through a 21 G needle. To pellet any debris, lysates were centrifuged at 10,000 g for 10 minutes at 4° C., with the supernatant transferred to fresh tubes. Protein concentrations were determined with Bradford assay (Biorad) and lysates were diluted to equal concentration with lysis buffer. Protein lysates were then mixed with Laemmli buffer, vortexed and heated to 95° C. for 5 min. Equal amounts of protein lysates in parallel with protein molecular weight marker (ThermoFisher) were loaded onto pre-cast polyacrylamide gels (Nupage 10 or 12% Bis Tris gel, Novex, Invitrogen) and separated by electrophoresis at 200V for 1 hour. Proteins were transferred onto polyvinylidene difluoride (PVDF) membrane (Invitrogen) using an electrophoretic transfer cell (Mini Trans-Blot, Bio-Rad) in ice-cold transfer buffer (48 mM Tris base, […], 0.1% SDS, 20% methanol (v/v)) at 300 mA for 2 hours. Membranes were blocked in 1× skimmed milk (ThermoFisher) for 1 hour at room temperature, followed by overnight incubation with primary antibody diluted in blocking buffer at 4° C. Next day membranes were washed, followed by 60 minutes incubation in the corresponding horseradish peroxidase (HRP)-conjugated secondary antibody diluted 1:2000-10000 in blocking buffer (all Abcam). Blots were developed using enhanced chemiluminescence (ECL) reagents (normal, Prime & Select) and digital images were acquired using an imaging system (Azure Biosystems). Membranes were usually stripped of antibodies and reprobed with an antibody targeting a protein serving as loading control (α-actinin for hearts & β-actin for all others). For this procedure, membranes were placed in Guanidine-HCl-based stripping solution (6M Guanidine-HCl, 0.2% Nonidet P-40, 0.1M β-mercaptoethanol, 20 mM Tris-HCl, pH 7.5 and 100 mM 2-mercaptoethanol) and incubated for 10 minutes at room temperature with gentle agitation, followed by extensive washing and re-blocking.^5
AML12 cells (ATCC® CRL-2254™) were maintained in DMEM/F-12 (1:1) culture media supplemented with 10% FBS, 10 μg/ml insulin, 5.5 μg/ml transferrin, 5 ng/ml selenium, 40 ng/ml dexamethasone and 1% penicillin/streptomycin. Cells were sub-cultivated from subconfluent flasks with a ratio from 1:4 to 1:8. For WB analysis, cells were plated on 6-well plates and harvested at 80-90% of confluence. AML12 cells were transfected with indicated siRNA (Table 2) at 80% confluence using Lipofectamine RNAiMAX Transfection Reagent (ThermoFischer Scientific 13778030) following the manufacturer's instructions. Transfection efficiency was constantly checked using BLOCK-IT Alexa Fluor Red Fluorescent Control (ThermoFischer Scientific 14750100).
as §1

CC(O)C(O)C1CNc2nc(N)[nH]c(=O)c2N1 (stereo not drawn) [BH4, 2-amino-6-(1,2-dihydroxypropyl)-5,6,7,8-tetrahydro-3H-pteridin-4-one]
cytosolic superoxide levels under PA treatment (C2C12 myoblasts; PA plus co-treatment (BH4 10 μM or NAC), FIG. 1f): normalized | reduced glutathione (GSH) levels under PA treatment (C2C12 myoblasts; PA plus co-treatment, data not shown): restored normal | Pah levels under Nutlin3a-induced senescence (AML-12 hepatocytes; Nutlin3a plus co-treatment, FIG. 4o, 4r): derepressed | tyrosine production / levels under Nutlin3a-induced senescence (AML-12 hepatocytes; Nutlin3a plus co-treatment, FIG. 4p, 4q): derepressed

N[C@@H](Cc1ccccc1)C(=O)O [PA, (S)-2-Amino-3-phenylpropanoic acid]
cytosolic superoxide levels (CellROX probe) (C2C12 myoblasts; as a function of PA concentration, FIG. 1e): incrementally increased | p21 protein (AML-12 hepatocytes; increasing concentrations of PA (0-10 mM), FIG. 4n): dose-dependent induction
